Measurements taken from the supplement of paper PMC10307832.

How the values were obtained:
Test in all cases: relative viability (nuclei count vs DMSO), 5 days (fraction); higher = more cells survive
NCI-H1792 = tested on: NCI-H1792
Outline: (§1)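 One day after seeding in 1536-well plates, lung cancer cell lines were dosed by pin tool. Dosing was either single-drug or a fixed anchor-drug dose plus five library-drug doses (not always all listed) in √10 steps. After 5 days, nuclei were stained in one fix-and-stain step and counted on 4× images, and relative viability is the nuclei count of treated wells over that of vehicle wells, given as the median of duplicate plates.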

NCI-H460 = tested on: NCI-H460
Outline: as §1

HCC-78 = tested on: HCC-78
Outline: as §1

LU99A = tested on: LU99A
Outline: as §1

SK-LU-1 = tested on: SK-LU-1
Outline: as §1

NCI-H1666 = tested on: NCI-H1666
Outline: as §1

LXF-289 = tested on: LXF-289
Outline: as §1

HCC-366 = tested on: HCC-366
Outline: as §1

NCI-H2009 = tested on: NCI-H2009
Outline: as §1

NCI-H1915 = tested on: NCI-H1915
Outline: as §1

UMC-11 = tested on: UMC-11
Outline: as §1

A-427 = tested on: A-427
Outline: as §1

LC-2-ad = tested on: LC-2-ad
Outline: as §1

NCI-H358 = tested on: NCI-H358
Outline: as §1

SW 900 = tested on: SW 900
Outline: as §1

NCI-H2170 = tested on: NCI-H2170
Outline: as §1

COR-L 105 = tested on: COR-L 105
Outline: as §1

HOP-62 = tested on: HOP-62
Outline: as §1

NCI-H1793 = tested on: NCI-H1793
Outline: as §1

NCI-H1944 = tested on: NCI-H1944
Outline: as §1

EPLC-272H = tested on: EPLC-272H
Outline: as §1

NCI-H2085 = tested on: NCI-H2085
Outline: as §1

`CC(=O)O[C@@]12CO[C@@H]1C[C@H](O)[C@@]1(C)C(=O)[C@H](O)C3=C(C)[C@@H](OC(=O)[C@H](O)[C@@H](NC(=O)OC(C)(C)C)c4ccccc4)C[C@@](O)([C@@H](OC(=O)c4ccccc4)[C@H]21)C3(C)C` [Docetaxel] + CC(=O)c1c(C)c2cnc(Nc3ccc(N4CCNCC4)cn3)nc2n(C2CCCC2)c1=O [Palbociclib] (partner 0.5 µM) showed a relative viability (NCI-H1792; first compound 0.0002 µM) of 0.651, a relative viability (NCI-H1792; first compound 0.000632 µM) of 0.639 and a relative viability (NCI-H1792; first compound 0.002 µM) of 0.543. The relative viability (NCI-H1792; first compound 0.006325 µM) was 0.367, the relative viability (NCI-H1792; first compound 0.02 µM) was 0.213 and the relative viability (NCI-H460; first compound 0.0002 µM) was 0.194. For the same molecule, the relative viability (NCI-H460; first compound 0.000632 µM) was 0.0505, the relative viability (NCI-H460; first compound 0.002 µM) was 0.0387 and the relative viability (NCI-H460; first compound 0.006325 µM) was 0.01. For the same molecule, the relative viability (NCI-H460; first compound 0.02 µM) was 0.0125, the relative viability (HCC-78; first compound 0.0002 µM) was 0.388 and the relative viability (HCC-78; first compound 0.000632 µM) was 0.481. The relative viability (HCC-78; first compound 0.002 µM) was 0.435, the relative viability (HCC-78; first compound 0.006325 µM) was 0.457 and the relative viability (HCC-78; first compound 0.02 µM) was 0.4. It also gave a relative viability (LU99A; first compound 0.0002 µM) of 0.367, a relative viability (LU99A; first compound 0.000632 µM) of 0.36 and a relative viability (LU99A; first compound 0.002 µM) of 0.265. The relative viability (LU99A; first compound 0.006325 µM) was 0.245, the relative viability (LU99A; first compound 0.02 µM) was 0.159 and the relative viability (SK-LU-1; first compound 0.0002 µM) was 0.358. The relative viability (SK-LU-1; first compound 0.000632 µM) was 0.315, the relative viability (SK-LU-1; first compound 0.002 µM) was 0.409 and the relative viability (SK-LU-1; first compound 0.006325 µM) was 0.265. It also gave a relative viability (SK-LU-1; first compound 0.02 µM) of 0.19, a relative viability (NCI-H1666; first compound 0.0002 µM) of 0.628 and a relative viability (NCI-H1666; first compound 0.000632 µM) of 0.666. For the same molecule, the relative viability (NCI-H1666; first compound 0.002 µM) was 0.795, the relative viability (NCI-H1666; first compound 0.006325 µM) was 0.712 and the relative viability (NCI-H1666; first compound 0.02 µM) was 0.581. It also gave a relative viability (LXF-289; first compound 0.0002 µM) of 0.578, a relative viability (LXF-289; first compound 0.000632 µM) of 0.569 and a relative viability (LXF-289; first compound 0.002 µM) of 0.337. It also gave a relative viability (LXF-289; first compound 0.006325 µM) of 0.222, a relative viability (LXF-289; first compound 0.02 µM) of 0.131 and a relative viability (HCC-366; first compound 0.0002 µM) of 0.327. The relative viability (HCC-366; first compound 0.000632 µM) was 0.0952, the relative viability (HCC-366; first compound 0.002 µM) was 0.066 and the relative viability (HCC-366; first compound 0.006325 µM) was 0.0347. The relative viability (HCC-366; first compound 0.02 µM) was 0.0219, the relative viability (NCI-H2009; first compound 0.0002 µM) was 0.135 and the relative viability (NCI-H2009; first compound 0.000632 µM) was 0.234. The relative viability (NCI-H2009; first compound 0.002 µM) was 0.192, the relative viability (NCI-H2009; first compound 0.006325 µM) was 0.202 and the relative viability (NCI-H2009; first compound 0.02 µM) was 0.127. It also gave a relative viability (NCI-H1915; first compound 0.0002 µM) of 0.506, a relative viability (NCI-H1915; first compound 0.000632 µM) of 0.464 and a relative viability (NCI-H1915; first compound 0.002 µM) of 0.219. It also gave a relative viability (NCI-H1915; first compound 0.006325 µM) of 0.149, a relative viability (NCI-H1915; first compound 0.02 µM) of 0.102 and a relative viability (UMC-11; first compound 0.0002 µM) of 0.322. The relative viability (UMC-11; first compound 0.000632 µM) was 0.357, the relative viability (UMC-11; first compound 0.002 µM) was 0.294 and the relative viability (UMC-11; first compound 0.006325 µM) was 0.266. The relative viability (UMC-11; first compound 0.02 µM) was 0.234, the relative viability (A-427; first compound 0.0002 µM) was 0.522 and the relative viability (A-427; first compound 0.000632 µM) was 0.505. It also gave a relative viability (A-427; first compound 0.002 µM) of 0.507, a relative viability (A-427; first compound 0.006325 µM) of 0.372 and a relative viability (A-427; first compound 0.02 µM) of 0.241. The relative viability (LC-2-ad; first compound 0.0002 µM) was 0.438, the relative viability (LC-2-ad; first compound 0.000632 µM) was 0.448 and the relative viability (LC-2-ad; first compound 0.002 µM) was 0.334. The relative viability (LC-2-ad; first compound 0.006325 µM) was 0.284, the relative viability (LC-2-ad; first compound 0.02 µM) was 0.233 and the relative viability (NCI-H358; first compound 0.0002 µM) was 0.16. The relative viability (NCI-H358; first compound 0.000632 µM) was 0.173, the relative viability (NCI-H358; first compound 0.002 µM) was 0.142 and the relative viability (NCI-H358; first compound 0.006325 µM) was 0.126. It also gave a relative viability (NCI-H358; first compound 0.02 µM) of 0.111, a relative viability (SW 900; first compound 0.0002 µM) of 0.511 and a relative viability (SW 900; first compound 0.000632 µM) of 0.308. It also gave a relative viability (SW 900; first compound 0.002 µM) of 0.354, a relative viability (SW 900; first compound 0.006325 µM) of 0.332 and a relative viability (SW 900; first compound 0.02 µM) of 0.264. It also gave a relative viability (NCI-H2170; first compound 0.0002 µM) of 0.409, a relative viability (NCI-H2170; first compound 0.000632 µM) of 0.383 and a relative viability (NCI-H2170; first compound 0.002 µM) of 0.306. It also gave a relative viability (NCI-H2170; first compound 0.006325 µM) of 0.188, a relative viability (NCI-H2170; first compound 0.02 µM) of 0.171 and a relative viability (COR-L 105; first compound 0.0002 µM) of 0.393. It also gave a relative viability (COR-L 105; first compound 0.000632 µM) of 0.403, a relative viability (COR-L 105; first compound 0.002 µM) of 0.368 and a relative viability (COR-L 105; first compound 0.006325 µM) of 0.353. It also gave a relative viability (COR-L 105; first compound 0.02 µM) of 0.338, a relative viability (HOP-62; first compound 0.0002 µM) of 0.461 and a relative viability (HOP-62; first compound 0.000632 µM) of 0.353. For the same molecule, the relative viability (HOP-62; first compound 0.002 µM) was 0.284, the relative viability (HOP-62; first compound 0.02 µM) was 0.156 and the relative viability (NCI-H1793; first compound 0.0002 µM) was 0.242. The relative viability (NCI-H1793; first compound 0.000632 µM) was 0.358, the relative viability (NCI-H1793; first compound 0.002 µM) was 0.347 and the relative viability (NCI-H1793; first compound 0.006325 µM) was 0.266. For the same molecule, the relative viability (NCI-H1793; first compound 0.02 µM) was 0.208, the relative viability (NCI-H1944; first compound 0.0002 µM) was 0.359 and the relative viability (NCI-H1944; first compound 0.000632 µM) was 0.268. For the same molecule, the relative viability (NCI-H1944; first compound 0.002 µM) was 0.314, the relative viability (NCI-H1944; first compound 0.006325 µM) was 0.22 and the relative viability (NCI-H1944; first compound 0.02 µM) was 0.14. For the same molecule, the relative viability (EPLC-272H; first compound 0.0002 µM) was 0.374, the relative viability (EPLC-272H; first compound 0.000632 µM) was 0.341 and the relative viability (EPLC-272H; first compound 0.002 µM) was 0.236. It also gave a relative viability (EPLC-272H; first compound 0.006325 µM) of 0.204, a relative viability (EPLC-272H; first compound 0.02 µM) of 0.148 and a relative viability (NCI-H2085; first compound 0.0002 µM) of 0.463. For the same molecule, the relative viability (NCI-H2085; first compound 0.000632 µM) was 0.551, the relative viability (NCI-H2085; first compound 0.002 µM) was 0.539 and the relative viability (NCI-H2085; first compound 0.006325 µM) was 0.48. The relative viability (NCI-H2085; first compound 0.02 µM) was 0.42.
